Measurements reported in patent EP1149836B1, “Polynalbuphine derivatives” (Hu, Oliver Yoa-Pu, priority 2000, dated 2001).
“And” between values parts separate entries of the source, which are not always exact repeats. Equal values may be shown once. Where a name gives a salt, the structure may show the parent alone.

Legend:
[1] = in vivo; cited from earlier work
[2] = cold ethanol tail flick test, dose response and MonoNalbuphine derivative study; details: rats; for maximal analgesic effect found at (dose): intramuscularly injection, Figure 4
Method: Each group consisted of 6 rats, and each rat was injected once intramuscularly on the rear leg.
The dose for each rat was 25 micromole per kg, intramuscularly.
The time to stop the experiment was set at 40 seconds to prevent the tail from cold sore. No cold sores were found within 40 sec. Five minutes after the drug was given to the rat, the flick test was performed every 10 minutes or more.

[3] = analgesic effect after intramuscular injection to rats, polynalbuphine derivative study; format: in vivo, Sprague Dawley rats
Method: In the experiment, a circulating cold ethanol bath with a temperature maintained at -20°C was set up. After dosing, the rat tail(1/3 from the tip) was immersed in the bath. The latency for the rat to flick its tail from the bath was measured to be the analgesic threshold. The effect of various opium alkaloid preparations can be determined with this test.
The analgesic effect can be calculated as follows: analgesic effect (%) = (flicking time after dosing - flicking time before dosing ) / (test terminated time - flicking time before dosing ) X 100% [formula]
(§1) Six male Sprague Dawley rats (175 to 225 g), and six male guinea pig(200 to 250 g) were used.

[4] = analgesic effect after intramuscular injection to guinea pigs; format: in vivo, guinea pig; details: 500 µM/kg and 250 µM/kg, Figure 7
From the text: as §1

[5] = pharmacokinetic study of long acting preparation in Beagle dog; parameters: species or system Beagle dogs; details: in vivo, comparison with sebacoyl dinalbuphine ester, read-out: half life for excretion (converted)
[6] = in vitro release of Nalbuphine from vehicles (dialysis bag, UV); format: physicochemical; details: Fig. 2, p<0.05
[7] = after continuous use for 6 months; cited from earlier work
[8] = half-life of dinalbuphine sebacoyl ester in rat blood, HPLC; format: in vitro ADME
Method: • (a) Dinalbuphine sebacoyl ester(SDN) was dissolved in acetonitrile, the concentration was 7.75 mg/ml. • (b) 250 ml of whole blood was collected from rat administered with the thus formed dinalbuphine sebacoyl ester soft drug, and was added with anticoagulant.
(§2) All blood collections were analyzed by HPLC.

[9] = half-life of dinalbuphine sebacoyl ester in rabbit blood, HPLC; format: in vitro ADME
Method: • (a) Dinalbuphine ester sebacoyl ester was dissolved in acetonitrile, the concentration was 5.2 mg/ml. • (b) 150 ml of whole blood was collected from rabbit administered with the thus formed dinalbuphine sebacoyl ester soft drug, and was added with anticoagulant.
as §2

[10] = half-life of dinalbuphine sebacoyl ester in dog blood, HPLC; format: in vitro ADME
Method: • (a) Dinalbuphine sebacoyl ester was dissolved in acetonitrile, the concentration was 12.5 mg/ml. • (b)200 ml of whole blood was collected from dog administered with the thus formed dinalbuphine sebacoyl ester soft drug, and was added with anticoagulant.
as §2

[11] = half-life of dinalbuphine sebacoyl ester in human blood, HPLC; format: in vitro ADME
Method: • (a) Dinalbuphine sebacoyl ester was dissolved in acetonitrile, the concentration was 10 mg/ml. • (b) 250 ml of whole blood was collected from human administered with the thus formed dinalbuphine sebacoyl ester soft drug, and was added with anticoagulant.
as §2

[12] = clinical / estimated analgesic duration in humans; format: in vivo; details: 125 µM/ kg administered to a human body
Method: The analgesic effect was extended to 4-5 days, when the dose administered was below 125 µM/kg. […] The same level of analgesic effect for intramuscular injection to rats was required at 15.625 µM/kg(6.165 mg/kg).
Therefore, the analgesic effect is estimated 4-5 days when 125 µM/ kg of sebacoyl dinalbuphine ester is administered to a human body.
The amount of the aforesaid injection was about 10 ml. However, the analgesic effect could not be maintained 4 to 5 days even upon administration of 88 ml of Malbuphine hydrochloride because of metabolism. Besides, such parenteral volume was not ideal for a single dose. This invention made an improvement. By diluting a single dose of sebacoyl dinalbuphine in 7.15 ml sesame oil form, parenteral administration could maintain the analgesic effect 4 to 5 days.

[13] = pharmacokinetic study of long acting preparation in Beagle dog; format: in vivo, Beagle dogs
Method: Six Beagle dogs were used. Five Beagle dogs were intramuscularly injected with 30 mg/kg long acting sebacoyl dinalbuphine ester oily parenteral administration respectively, and another one was injected with 100 mg/kg long acting sebacoyl dinalbuphine ester oily parenteral administration. Blood samples were collected through the veins in front limbs of the dogs at 1, 2, 6, 24, 30, 48, 54, 72, 78, 96, 102, 120, 168, 192 hours. […] The relationship between time and concentration was analyzed by PCNONLIN computer program. Two-compartment model and pharmacokinetic parameters were calculated to depict absorption, distribution, metabolism, and excretion of drugs in the dogs.

Oc1ccc2c(c1)[C@@]13CCCC[C@@]1(O)[C@@H](C2)N(CC1CCC1)CC3 [Butorphanol]
dose needed to elicit the same analgesic effect [1]: 2 mg

CN1CC[C@]23c4c5ccc(O)c4O[C@H]2[C@@H](O)C=C[C@H]3[C@H]1C5.Cl [Morphine hydrochloride]
maximal analgesic effect found at (dose) [2]: 10 mg/kg

CN1CC[C@]23c4c5ccc(O)c4O[C@H]2[C@@H](O)C=C[C@H]3[C@H]1C5 [Morphine]
dose needed to elicit the same analgesic effect [1]: 10 mg

Oc1ccc2c3c1O[C@H]1[C@@H](O)CC[C@@]4(O)[C@@H](C2)N(CC2CCC2)CC[C@]314 [Nalbuphine hydrochloride]
analgesic effects ([3]; intramuscular injection, 15.625, 62.5, 250 µM/kg, Figure 6): significant analgesic effects
analgesic effects [4]: significant analgesic effects
half-life [5]: ~60 min
maximal analgesic effect found at (dose) [2]: 100 mg/kg

Oc1ccc2c3c1O[C@H]1[C@@H](O)CC[C@@]4(O)[C@@H](C2)N(CC2CCC2)CC[C@]314 [Nalbuphine]
amount of released Nalbuphine free base ([6]; between 17 and 28 hours): less in the preparation with sesame oil than with peanut oil and the phosphate buffer
release rate ([6]; sesame oil as the vehicle vs the other three preparations, between 1 and 11 hours): slowest release rate
addiction, synergistic effect and respiratory inhibition [7]: no significant addiction and synergistic effect was found, but only slight respiratory inhibition
analgesic duration ([2]; 25 micromole per kg intramuscularly, in sesame oil, compared with each preparation of MonoNalbuphine derivatives, Fig. 5): significantly shorter

O=C(CCCCCCCCC(=O)Oc1ccc2c3c1O[C@H]1[C@@H](O)CC[C@@]4(O)[C@@H](C2)N(CC2CCC2)CC[C@]314)Oc1ccc2c3c1O[C@H]1[C@@H](O)CC[C@@]4(O)[C@@H](C2)N(CC2CCC2)CC[C@]314 [sebacoyl dinalbuphine ester]
converted time, which converts 90% dinalbuphine sebacoyl ester(SDN) into Nalbuphine ([8]; rat): 10 min
half-life ([8]; rat blood test, read-out: half life): 2.8 min
half-life ([8]; rat plasma, read-out: Elimination Half-life): 2.8 min
half-life ([8]; rat whole blood, n=3, mean± S.E, read-out: Elimination Half-life): 2.2 ± 0.5 min
half-life ([8]; red blood cells, rat red blood cell, n=3, mean± S.E, read-out: Elimination Half-life): 2.3 ± 0.6 min
converted time, which converts 90% dinalbuphine sebacoyl ester(SDN) into Nalbuphine ([9]; rabbit): 25 min
half-life ([9]; rabbit blood test, read-out: half life): 7 min
half-life ([9]; rabbit plasma, n=3, mean± S.E, read-out: Elimination Half-life): 6.98 ± 0.03 min
half-life ([9]; rabbit whole blood, n=3, mean± S.E, read-out: Elimination Half-life): 14.9 ± 1.3 min
half-life ([9]; red blood cells, rabbit red blood cell, n=3, mean± S.E, read-out: Elimination Half-life): 26.2 ± 4.8 min
converted time, which converts 90% dinalbuphine sebacoyl ester(SDN) into Nalbuphine ([10]; dog): 95 min
half-life ([10]; dog blood test, read-out: half life): 27.8 min
half-life ([10]; dog plasma, n=3, read-out: Elimination Half-life): 27.8 ± 0.5 min
half-life ([10]; dog whole blood, n=3, read-out: Elimination Half-life): 30.5 ± 0.8 min
half-life ([10]; red blood cells, dog red blood cell, n=3, read-out: Elimination Half-life): 33.4 ± 1.4 min
converted time, which converts 90% dinalbuphine sebacoyl ester(SDN) into Nalbuphine ([11]; human): 30 min
half-life ([11]; human blood test, read-out: half life): 9 min
half-life ([11]; human plasma, n=3, read-out: Elimination Half-life): 9 ± 0.4 min
half-life ([11]; human whole blood, n=3, read-out: Elimination Half-life): 8.8 ± 0.4 min
half-life ([11]; red blood cells, human red blood cell, n=3, read-out: Elimination Half-life): 7.7 ± 0.4 min
50% analgesic effect was extended to ([3]; intramuscular injection of 125 µM/kg, Figure 9): 88 h
analgesic effects ([3]; intramuscular injection, 7.8125, 31.25, 125 µM/kg, Figure 8): proportional to the dose administered
analgesic effect relative to Nalbuphine hydrochloride ([3]; intramuscular, Figure 9): 8.8 times
analgesic effect was extended to ([3]; intramuscular, dose administered below 125 µM/kg): 4 to 5 days
analgesic effect estimated (duration) [12]: 4 to 5 days
MRT ([13]; Beagle Dog 2, i.m., Dose 24.3 mg/kg): 78.8 H
MRT ([13]; Beagle Dog 2, i.m., Dose 81.0 mg/kg): 127.2 H
MRT ([13]; Beagle dogs, 30 mg/kg i.m. oily injection, Mean of five dogs): 73.2 H
MRT ([13]; Beagle dogs, 30 mg/kg i.m. oily injection, individual dogs 1-5, listed as SDN, 30 mg/kg): 84.3 H and 78.8 H and 61.1 H and 62.7 H and 79.1 H
kinetic across two doses ([13]; Beagle dogs, Table 6 vs Table 7): linear kinetic
absorption in injection oil vehicle ([13]; Beagle dogs, i.m., Figures 10 and 11): zero order
